# Data as given in patent publication US20100298141A1, “SUBSTITUTED PYRIDINE N-OXIDE HERBICIDES” (E. I. DU PONT DE NEMOURS AND COMPANY, priority 2007, published 2010).
# What was measured:
# downy brome = assay: Test C pre-/postemergence test; type: in vivo, Bromus tectorum
# Outline: (§1)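 Test chemicals were formulated with surfactant in a non-phytotoxic solvent and sprayed both on freshly planted seeds (preemergence) and on 1- to 4-leaf plants of 2–18 cm (postemergence). Flooded-paddy pots received compound directly into 3 cm of standing water, maintained for the test.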
# catchweed bedstraw = assay: Test C pre-/postemergence test; type: in vivo, Galium aparine; settings: Preemergence
# Outline: as §1
# johnsongrass = assay: Test C pre-/postemergence test; type: in vivo, Sorghum halepense; settings: Preemergence
# Outline: as §1
# velvetleaf = assay: Test A pre-/postemergence greenhouse test; type: in vivo, Abutilon theophrasti; settings: for Velvetleaf plant response rating: 0 to 100 scale
# Outline: (§2)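 Visual injury ratings against untreated controls, taken roughly ten days after treatment in greenhouse. Plants were sprayed postemergence at one- to two-leaf stage (2–10 cm tall); at the same time, seeded loam/sand soil received a directed preemergence spray. Formulation: non-phytotoxic solvent mixture with surfactant.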
# soybean = assay: Test C pre-/postemergence test; type: in vivo, Glycine max; settings: Preemergence
# Outline: as §1
# morningglory = assay: Test C pre-/postemergence test; type: in vivo, Ipomoea coccinea; settings: Preemergence
# Outline: as §1
# Surinam grass = assay: Test C pre-/postemergence test; type: in vivo, Brachiaria decumbens; settings: Preemergence
# Outline: as §1
# corn = assay: Test A pre-/postemergence greenhouse test; type: in vivo, Zea mays; settings: for Corn plant response rating: 0 to 100 scale
# Outline: as §2
# barnyardgrass = assay: Test C flooded paddy test; type: in vivo, Echinochloa crus-galli; settings: Flood
# Outline: (§3)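 Flooded 3 cm over soil; compound into paddy water; depth kept constant. Greenhouse 13–15 d.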
# giant foxtail [1] = assay: Test A pre-/postemergence greenhouse test; type: in vivo, Setaria faberi; settings: for Foxtail, Giant plant response rating: 0 to 100 scale
# Outline: as §2
# bermudagrass = assay: Test C pre-/postemergence test; type: in vivo, Cynodon dactylon
# Outline: as §1
# rice = assay: Test C flooded paddy test; type: in vivo, Oryza sativa; settings: Flood
# Outline: as §3
# crabgrass = assay: Test C pre-/postemergence test; type: in vivo, Digitaria sanguinalis; settings: Preemergence
# Outline: as §1
# pigweed = assay: Test C pre-/postemergence test; type: in vivo, Amaranthus retroflexus; settings: Preemergence
# Outline: as §1
# lambsquarters = assay: Test C pre-/postemergence test; type: in vivo, Chenopodium album; settings: Preemergence
# Outline: as §1
# wheat = assay: Test A pre-/postemergence greenhouse test; type: in vivo, Triticum aestivum; settings: for Wheat plant response rating: 0 to 100 scale
# Outline: as §2
# giant foxtail [2] = assay: Test C pre-/postemergence test; type: in vivo, Setaria faberii; settings: Preemergence
# Outline: as §1
# [3] = Preemergence, 31 g ai/ha, scale 0 to 100 (0 no effect, 100 complete control)
# [4] = preemergence, 125 g ai/ha, scale 0 (no effect) to 100 (complete control)
# [5] = 31 g ai/ha, scale 0 to 100 (0 no effect, 100 complete control)
# [6] = Postemergence, 125 g ai/ha, 0 is no effect, 100 is complete control
# [7] = Postemergence, 500 g ai/ha, 0 is no effect, 100 is complete control
# [8] = Preemergence, 125 g ai/ha, 0 no effect, 100 complete control
# [9] = Preemergence, 500 g ai/ha, 0 to 100 scale where 0 is no effect and 100 is complete control
# [10] = 62 g ai/ha, scale 0 to 100, 0 no effect, 100 complete control, 13 to 15 days
# [11] = 125 g ai/ha, scale 0 to 100, 0 no effect, 100 complete control, 13 to 15 days
# [12] = 250 g ai/ha, scale 0 to 100 (0 no effect, 100 complete control)
compound,measurement,setting,value
Cc1cc[n+]([O-])c(S(=O)(=O)Cc2c(C(F)(F)F)nn(C)c2Cl)c1 [Compound 19],"Bromegrass, Downy plant response rating","downy brome; 62 g ai/ha, Preemergence, scale 0 to 100",0
same,"Plant response rating, Bromegrass, Downy",downy brome; [3],0
same,"Plant response rating (0 to 100), Bromegrass, Downy","downy brome; Preemergence, 250 g ai/ha",0
same,"Bromegrass, Downy plant response rating",downy brome; [4],0
same,Galium plant response rating,"catchweed bedstraw; 62 g ai/ha, scale 0 to 100",100
same,"Plant response rating, Galium",catchweed bedstraw; [5],85
same,"Plant response rating (0 to 100), Galium",catchweed bedstraw; 250 g ai/ha,100
same,Johnsongrass plant response rating,"johnsongrass; 62 g ai/ha, scale 0 to 100",80
same,"Plant response rating, Johnsongrass",johnsongrass; [5],10
same,"Plant response rating (0 to 100), Johnsongrass",johnsongrass; 250 g ai/ha,100
same,Velvetleaf plant response rating,velvetleaf; [6],20
same,Velvetleaf plant response rating,velvetleaf; [7],40
same,Velvetleaf plant response rating,velvetleaf; [8],0
same,"Plant response rating, Velvetleaf",velvetleaf; [9],50
same,Soybean plant response rating,"soybean; 62 g ai/ha, scale 0 to 100",0
same,"Plant response rating, Soybean",soybean; [5],0
same,Morningglory plant response rating,"morningglory; 62 g ai/ha, scale 0 to 100",60
same,"Plant response rating, Morningglory",morningglory; [5],0
same,Surinam Grass plant response rating,"Surinam grass; 62 g ai/ha, scale 0 to 100",50
same,"Plant response rating, Surinam Grass",Surinam grass; [5],0
same,Corn plant response rating,corn; [6],0
same,Corn plant response rating,corn; [7],50
same,Corn plant response rating,corn; [8],30
same,"Plant response rating, Corn",corn; [9],50
same,"Plant response rating, Barnyardgrass",barnyardgrass; [5],0
same,"Plant response rating, Barnyardgrass",barnyardgrass; [10],0
same,"Plant response rating, Barnyardgrass",barnyardgrass; [11],30
same,"Plant response rating, Barnyardgrass",barnyardgrass; [12],75
same,"Foxtail, Giant plant response rating",giant foxtail [1]; [6],50
same,"Foxtail, Giant plant response rating",giant foxtail [1]; [7],80
same,"Foxtail, Giant plant response rating",giant foxtail [1]; [8],80
same,"Plant response rating, Foxtail, Giant",giant foxtail [1]; [9],100
same,Bermudagrass plant response rating,"bermudagrass; 62 g ai/ha, Preemergence, scale 0 to 100 (0 no effect, 100 complete control)",100
same,"Plant response rating, Bermudagrass",bermudagrass; [3],85
same,"Plant response rating (0 to 100), Bermudagrass","bermudagrass; Preemergence, 250 g ai/ha",100
same,Bermudagrass plant response rating,bermudagrass; [4],100
same,"Plant response rating, Rice",rice; [5],0
same,"Plant response rating, Rice",rice; [10],0
same,"Plant response rating, Rice",rice; [11],30
same,"Plant response rating, Rice",rice; [12],70
same,"Crabgrass, Large plant response rating","crabgrass; 62 g ai/ha, scale 0 to 100",100
same,"Plant response rating, Crabgrass, Large",crabgrass; [5],98
same,"Plant response rating (0 to 100), Crabgrass, Large",crabgrass; 250 g ai/ha,100
same,Pigweed plant response rating,"pigweed; 62 g ai/ha, scale 0 to 100",100
same,"Plant response rating, Pigweed",pigweed; [5],80
same,Lambsquarters plant response rating,"lambsquarters; 62 g ai/ha, scale 0 to 100",0
same,"Plant response rating, Lambsquarters",lambsquarters; [5],0
same,Wheat plant response rating,wheat; [6],0
same,Wheat plant response rating,wheat; [7],50
same,Wheat plant response rating,wheat; [8],40
same,"Plant response rating, Wheat",wheat; [9],70
same,"Foxtail, Giant plant response rating","giant foxtail [2]; 62 g ai/ha, scale 0 to 100",100
same,"Plant response rating, Foxtail, Giant",giant foxtail [2]; [5],100
same,"Plant response rating (0 to 100), Foxtail, Giant",giant foxtail [2]; 250 g ai/ha,100
